Data on 19 molecules can be found in PubChem BioAssay AID328 (DTP/NCI, 2004).

Values joined by “and” are separate entries in the source; they are usually repeats but may differ in a detail not shown here. Identical values can stand only once. Toxic doses and inconclusive results are not listed.

The test system of the experiment is BDF1 mice, P388 leukemia ip, median survival T/C. Briefly: NCI In Vivo Anticancer Drug Screen. Data for tumor model P388 Leukemia (intraperitoneal) in B6D2F1 (BDF1) mice. The conditions noted are these: endpoint: median survival time, higher = longer survival. The gist of the method: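 Steps: implant the tumour, treat one group with compound and another with vehicle, record survival, then divide treated by control.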

[1] abbreviates: dose: 100.0 mg/kg/injection, schedule: Q04DX003 (ip), vehicle: saline with Tween-80.
The mark [2] stands for this setting: dose: 200.0 mg/kg/injection, schedule: Q04DX003 (ip), vehicle: saline with Tween-80.
Where [3] appears, read: dose: 6.0 mg/kg/injection, schedule: Q01DX009 (ip), vehicle: Klucel (hydroxypropylcellulose) (HPC).
[4] abbreviates: dose: 12.0 mg/kg/injection, schedule: Q01DX009 (ip), vehicle: Klucel (hydroxypropylcellulose) (HPC).
[5] abbreviates: dose: 25.0 mg/kg/injection, schedule: Q01DX009 (ip), vehicle: Klucel (hydroxypropylcellulose) (HPC).
Where [6] appears, read: dose: 100.0 mg/kg/injection, schedule: Q01DX009 (ip), vehicle: saline with Tween-80.
Where [7] appears, read: dose: 200.0 mg/kg/injection, schedule: Q01DX009 (ip), vehicle: saline with Tween-80.
Setting [8] is: dose: 400.0 mg/kg/injection, schedule: Q04DX003 (ip), vehicle: saline with Tween-80.
The mark [9] stands for this setting: dose: 50.0 mg/kg/injection, schedule: Q01DX009 (ip), vehicle: Klucel (hydroxypropylcellulose) (HPC).
Setting [10] is: dose: 100.0 mg/kg/injection, schedule: Q01DX009 (ip), vehicle: Klucel (hydroxypropylcellulose) (HPC).
Setting [11] is: dose: 200.0 mg/kg/injection, schedule: Q01DX009 (ip), vehicle: Klucel (hydroxypropylcellulose) (HPC).
Where [12] appears, read: dose: 50.0 mg/kg/injection, schedule: Q01DX009 (ip), vehicle: saline with Tween-80.
[13] abbreviates: dose: 50.0 mg/kg/injection, schedule: Q04DX003 (ip), vehicle: water.
Where [14] appears, read: dose: 200.0 mg/kg/injection, schedule: Q04DX003 (ip), vehicle: water.
[15] abbreviates: dose: 400.0 mg/kg/injection, schedule: Q04DX003 (ip), vehicle: water.
The mark [16] stands for this setting: dose: 100.0 mg/kg/injection, schedule: Q04DX003 (ip), vehicle: Klucel (hydroxypropylcellulose) (HPC).
Where [17] appears, read: dose: 200.0 mg/kg/injection, schedule: Q04DX003 (ip), vehicle: Klucel (hydroxypropylcellulose) (HPC).
The mark [18] stands for this setting: dose: 400.0 mg/kg/injection, schedule: Q04DX003 (ip), vehicle: Klucel (hydroxypropylcellulose) (HPC).

Turning to `O=C(CCBr)N1CCN(C(=O)CCBr)CC1`, the T/C is 109 % of control (dose: 10.0 mg/kg/injection, schedule: Q01DX010 (ip), vehicle: saline); 122 % of control (dose: 20.0 mg/kg/injection, schedule: Q01DX010 (ip), vehicle: saline); 181 % of control (dose: 40.0 mg/kg/injection, schedule: Q01DX010 (ip), vehicle: saline).

In the case of `CCOc1ccc(Nc2cc([N+](=O)[O-])ccc2C(=O)O)cc1`, the T/C reads like this: (dose: 50.0 mg/kg/injection, schedule: Q04DX003 (ip), vehicle: saline with Tween-80) 100 % of control; under setting [1], 90 % of control; under setting [2], 90 % of control.

Turning to `CC[C@H](C)c1occ2c(O)c(C(=O)O)c(=O)cc-2c1C`, the T/C runs as follows: under setting [3], 100 % of control; under setting [4], 118 % of control; under setting [5], 118 % of control.

Consider `S=c1nc[nH]c2c1ncn2CN1CCOCC1`, for which the T/C under setting [5] is 110 % of control.

Take `C=CCOC(=O)c1ccccc1N`: the T/C is 118 % of control under setting [6]; 110 % of control under setting [1]; 118 % of control under setting [7]; 115 % of control under setting [2]; 110 % of control under setting [8].

With `c1ccc(C/C(N=Nc2ccccc2)=N\Nc2ccccc2)cc1`, the T/C under setting [9] is 110 % of control, the T/C under setting [10] was 110 % of control and the T/C under setting [11] is 100 % of control.

For `CCOC(=O)c1oc2ccccc2c1CN`, the T/C was 107 % of control under setting [12] and 107 % of control under setting [6].

As for `O=Cc1csc2ncccc12`, the T/C under setting [1] was 91 % of control, the T/C under setting [2] was 100 % of control and the T/C under setting [8] was 95 % of control.

For `O=C(NCCCl)NC1C(O)OC(CO)C(O)C1O` (stereo not given), the T/C by setting is: (dose: 25.0 mg/kg/injection, schedule: Q01DX009 (ip), vehicle: water) 109 % of control; (dose: 50.0 mg/kg/injection, schedule: Q01DX009 (ip), vehicle: water) 120 % of control; under setting [13], 101 % of control; (dose: 100.0 mg/kg/injection, schedule: Q01DX009 (ip), vehicle: water) 92 % of control; (dose: 100.0 mg/kg/injection, schedule: Q04DX003 (ip), vehicle: water) 86 % of control; (dose: 200.0 mg/kg/injection, schedule: Q01DX009 (ip), vehicle: water) 91 % of control. Besides, the T/C by setting is: under setting [14], 109 % of control; (dose: 400.0 mg/kg/injection, schedule: Q01DX009 (ip), vehicle: water) 94 % of control; under setting [15], 101 % of control.

`[O-]/[N+](=C\C=C\c1ccccc1)c1ccccc1`: the T/C was 100 % of control under setting [16], 86 % of control under setting [17] and 90 % of control under setting [18].

Turning to `CN1CCC2=C(C1)C(c1ccccc1)c1ccccc12` (stereo not given), for the setting “dose: 25.0 mg/kg/injection, schedule: Q01DX009 (ip), vehicle: saline”, the T/C was 106 % of control.

For `CC(=O)OC1CCC2(C)C3CCC4(C)C(O)CCC4C3CC(O)C2(O)C1` (stereo not given), the T/C is, setting by setting: (dose: 50.0 mg/kg/injection, schedule: Q01DX009 (ip), vehicle: saline) 103 % of control; (dose: 100.0 mg/kg/injection, schedule: Q01DX009 (ip), vehicle: saline) 88 % of control; (dose: 200.0 mg/kg/injection, schedule: Q01DX009 (ip), vehicle: saline) 107 % of control.

As for `Cc1cc(C(C)(C)CC(C)(C)C)ccc1O`, the T/C is 100 % of control (dose: 88.0 mg/kg/injection, schedule: Q01DX009 (sc), vehicle: olive oil, sesame oil, peanut oil); 100 % of control (dose: 100.0 mg/kg/injection, schedule: Q01DX009 (sc), vehicle: olive oil, sesame oil, peanut oil); 91 % of control (dose: 100.0 mg/kg/injection, schedule: Q04DX003 (sc), vehicle: olive oil, sesame oil, peanut oil); 92 % of control (dose: 133.0 mg/kg/injection, schedule: Q01DX009 (sc), vehicle: olive oil, sesame oil, peanut oil); 86 % of control (dose: 200.0 mg/kg/injection, schedule: Q01DX009 (sc), vehicle: olive oil, sesame oil, peanut oil); 100 % of control (dose: 200.0 mg/kg/injection, schedule: Q04DX003 (sc), vehicle: olive oil, sesame oil, peanut oil). Further, the T/C is 106 % of control (dose: 300.0 mg/kg/injection, schedule: Q01DX009 (sc), vehicle: olive oil, sesame oil, peanut oil); 110 % of control (dose: 400.0 mg/kg/injection, schedule: Q01DX009 (sc), vehicle: olive oil, sesame oil, peanut oil); 104 % of control (dose: 400.0 mg/kg/injection, schedule: Q04DX003 (sc), vehicle: olive oil, sesame oil, peanut oil).

As for `Cc1cc(/C=C/c2cc[n+](C)c3ccccc23)c(O)c2ncccc12`, the T/C by setting is: (dose: 3.0 mg/kg/injection, schedule: Q01DX009 (ip), vehicle: saline) 163 % of control; under setting [3], 155 % of control; (dose: 6.0 mg/kg/injection, schedule: Q01DX009 (ip), vehicle: saline) 159 % of control; under setting [4], 165 % of control; (dose: 12.0 mg/kg/injection, schedule: Q01DX009 (ip), vehicle: saline) 159 % of control; (dose: 24.0 mg/kg/injection, schedule: Q01DX009 (ip), vehicle: saline) 168 % of control.

As for `C[n+]1c(-c2cc(Cl)cc(Cl)c2)c2cc([N+](=O)[O-])ccc2c2ccccc21`, the T/C by setting is: under setting [13], 120 % of control; under setting [14], 122 % of control; under setting [15], 110 % of control.

In the case of `CCOc1c([N+](=O)[O-])cc([N+](=O)[O-])c2ccccc12`, the T/C (dose: 25.0 mg/kg/injection, schedule: Q01DX009 (ip), vehicle: saline with Tween-80) is 96 % of control; the T/C under setting [12] is 96 % of control; the T/C under setting [6] was 93 % of control.

On to `CC1(O)CCC2C3CCC4=CC(=O)CCC4C3CCC21C` (stereo not given), for which the T/C is, setting by setting: under setting [9], 113 % of control; (dose: 65.0 mg/kg/injection, schedule: Q01DX009 (ip), vehicle: Klucel (hydroxypropylcellulose) (HPC)) 94 % of control; (dose: 66.0 mg/kg/injection, schedule: Q01DX009 (ip), vehicle: Klucel (hydroxypropylcellulose) (HPC)) 95 % of control and 100 % of control; (dose: 100.0 mg/kg/injection, schedule: Q04DX003 (ip), vehicle: other) 100 % of control; under setting [11], 100 % of control and 118 % of control; (dose: 200.0 mg/kg/injection, schedule: Q04DX003 (ip), vehicle: other) 115 % of control.

Turning to `O=[N+]([O-])c1cc([N+](=O)[O-])c2nn(-c3ccccc3)[n+]([O-])c2c1`, the T/C under setting [5] was 100 % of control; the T/C under setting [9] is 100 % of control; the T/C under setting [10] was 90 % of control; the T/C under setting [16] is 95 % of control; the T/C under setting [17] was 100 % of control; the T/C under setting [18] was 100 % of control.

For the molecule `CS(=O)CC(O)(c1cccs1)C1CC1` (stereo not given), the T/C by setting is: under setting [12], 103 % of control; under setting [6], 117 % of control; under setting [7], 98 % of control.
